pIC50: −log10 of the molar value.
Legend:
SARS-CoV 3CLpro = SARS-CoV 3CLpro (Severe acute respiratory syndrome coronavirus, UniProt P0C6X7); assay: biochemical
HCoV-229E 3CLpro = HCoV-229E 3CLpro (Human coronavirus 229E, UniProt P0C6X1); assay: HCoV-229E 3CLpro inhibition assay (FRET); type: biochemical
MERS-CoV 3CLpro = MERS-CoV 3CLpro (Middle East respiratory syndrome-related coronavirus, UniProt K9N7C7); assay: biochemical
SARS-CoV-2 3CLpro = SARS-CoV-2 3CLpro (Severe acute respiratory syndrome coronavirus 2, UniProt P0DTD1); assay: biochemical

Chain of MERS-CoV 3CLpro (K9N7C7 3248-3553): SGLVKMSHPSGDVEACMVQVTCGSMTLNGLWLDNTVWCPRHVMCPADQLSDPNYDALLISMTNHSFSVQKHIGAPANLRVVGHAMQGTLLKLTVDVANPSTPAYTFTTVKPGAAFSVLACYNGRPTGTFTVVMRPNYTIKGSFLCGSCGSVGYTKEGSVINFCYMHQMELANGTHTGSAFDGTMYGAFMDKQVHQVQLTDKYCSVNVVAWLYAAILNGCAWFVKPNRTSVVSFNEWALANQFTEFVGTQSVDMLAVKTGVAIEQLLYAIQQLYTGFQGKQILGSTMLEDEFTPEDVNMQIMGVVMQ
Chain of HCoV-229E 3CLpro (P0C6X1 2966-3267): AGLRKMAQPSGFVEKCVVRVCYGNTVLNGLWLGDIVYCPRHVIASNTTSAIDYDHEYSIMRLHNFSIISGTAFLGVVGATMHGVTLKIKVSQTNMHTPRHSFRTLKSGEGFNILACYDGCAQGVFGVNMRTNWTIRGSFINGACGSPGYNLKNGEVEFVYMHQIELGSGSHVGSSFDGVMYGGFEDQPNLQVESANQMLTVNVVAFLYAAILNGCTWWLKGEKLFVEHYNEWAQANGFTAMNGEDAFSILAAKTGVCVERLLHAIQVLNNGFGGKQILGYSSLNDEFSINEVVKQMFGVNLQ

SMILES | pIC50 (SARS-CoV 3CLpro) | pIC50 (HCoV-229E 3CLpro) | pIC50 (MERS-CoV 3CLpro) | pIC50 (SARS-CoV-2 3CLpro)
CCC(CC)[C@H](NC(=O)C1CC(F)(F)C1)C(=O)N1C[C@@H]2CCC[C@@H]2[C@H]1C(=O)NN(C[C@@H]1CCNC1=O)C(=O)[C@H](F)Cl [Example 134, N-[(1S)-1-[(3S,3aS,6aR)-3-[[[(2R)-2-chloro-2-fluoro-acetyl]-[[(3S)-2-oxopyrrolidin-3-yl]methyl]amino]carbamoyl]-3,3a,4,5,6,6a-hexahydro-1H-cyclopenta[c]pyrrole-2-carbonyl]-2-ethyl-butyl]-3,3-difluoro-cyclobutanecarboxamide] | 7.85 | 7.44 | 7.01 | 8.00
CC[C@@H](C)[C@H](NC(=O)C1CC(F)(F)C1)C(=O)N1C[C@@H]2CCC[C@@H]2[C@H]1C(=O)NN(C[C@@H]1CCNC1=O)C(=O)[C@H](F)Cl [Example 128, N-[(1S,2R)-1-[(3S,3aS,6aR)-3-[[[(2R)-2-chloro-2-fluoro-acetyl]-[[(3S)-2-oxopyrrolidin-3-yl]methyl]amino]carbamoyl]-3,3a,4,5,6,6a-hexahydro-1H-cyclopenta[c]pyrrole-2-carbonyl]-2-methyl-butyl]-3,3-difluoro-cyclobutanecarboxamide] | 7.74 | 7.44 | 7.01 | 7.96
CC[C@H](C)[C@H](NC(C)=O)C(=O)N1C[C@@H]2CCC[C@@H]2[C@H]1C(=O)NN(C[C@@H]1CCNC1=O)C(=O)[C@H](F)Cl [Example 81, N-[(1S,2S)-1-[(3S,3aS,6aR)-3-[[[(2R)-2-chloro-2-fluoro-acetyl]-[[(3S)-2-oxopyrrolidin-3-yl]methyl]amino]carbamoyl]-3,3a,4,5,6,6a-hexahydro-1H-cyclopenta[c]pyrrole-2-carbonyl]-2-methyl-butyl]acetamide] | 7.82 | 7.35 | 7.03 | 8.05
CC[C@H](C)[C@H](NC(=O)C1(F)CC1)C(=O)N1C[C@@H]2CCC[C@@H]2[C@H]1C(=O)NN(C[C@@H]1CCNC1=O)C(=O)[C@H](F)Cl [Example 79, N-[(1S,2S)-1-[(3S,3aS,6aR)-3-[[[(2R)-2-chloro-2-fluoro-acetyl]-[[(3S)-2-oxopyrrolidin-3-yl]methyl]amino]carbamoyl]-3,3a,4,5,6,6a-hexahydro-1H-cyclopenta[c]pyrrole-2-carbonyl]-2-methyl-butyl]-1-fluoro-cyclopropanecarboxamide] | 7.96 | 7.41 | 6.94 | 8.15
CC[C@@H](C)[C@H](NC(=O)[C@H](C)F)C(=O)N1C[C@H]2[C@@H]([C@H]1C(=O)NN(C[C@@H]1CCNC1=O)C(=O)[C@H](F)Cl)C2(C)C [Example 117, (2S)—N-[(1S,2R)-1-[(1R,2S,5S)-2-[[[(2R)-2-chloro-2-fluoro-acetyl]-[[(3S)-2-oxopyrrolidin-3-yl]methyl]amino]carbamoyl]-6,6-dimethyl-3-azabicyclo[3.1.0]hexane-3-carbonyl]-2-methyl-butyl]-2-fluoro-propanamide] | 7.96 | 7.60 | 7.07 | 7.96
CCC(C)(C)[C@H](NC(=O)C1CC1)C(=O)N1CC(C)(C)C[C@H]1C(=O)NN(C[C@H]1CCCNC1=O)C(=O)[C@H](F)Cl [Example 168b, N-[(1S)-1-[(2S)-2-[[[(2R)-2-chloro-2-fluoro-acetyl]-[[(3R)-2-oxo-3-piperidyl]methyl]amino]carbamoyl]-4,4-dimethyl-pyrrolidine-1-carbonyl]-2,2-dimethyl-butyl]cyclopropanecarboxamide] | 6.73 | 6.66 | 5.68 | 7.00
CCC(CC)[C@H](NC(=O)C1(F)CC1)C(=O)N1C[C@H]2[C@@H]([C@H]1C(=O)NN(C[C@@H]1CCNC1=O)C(=O)[C@@H](F)Cl)C2(C)C [Example 133, N-[(1S)-1-[(1R,2S,5S)-2-[[[(2S)-2-chloro-2-fluoro-acetyl]-[[(3S)-2-oxopyrrolidin-3-yl]methyl]amino]carbamoyl]-6,6-dimethyl-3-azabicyclo[3.1.0]hexane-3-carbonyl]-2-ethyl-butyl]-1-fluoro-cyclopropanecarboxamide] | 7.49 | 7.40 | 6.97 | 7.70
CC(C)(C)[C@H](NC(=O)C1(F)CCC1)C(=O)N1C[C@H]2[C@@H]([C@H]1C(=O)NN(C[C@@H]1CCNC1=O)C(=O)[C@H](F)Cl)C2(C)C [Example 91, N-[(1S)-1-[(1R,2S,5S)-2-[[[(2R)-2-chloro-2-fluoro-acetyl]-[[(3S)-2-oxopyrrolidin-3-yl]methyl]amino]carbamoyl]-6,6-dimethyl-3-azabicyclo[3.1.0]hexane-3-carbonyl]-2,2-dimethyl-propyl]-1-fluoro-cyclobutanecarboxamide] | 7.82 | 7.41 | 6.94 | 7.92
CC(C)(C)[C@H](NC(=O)C1CC1)C(=O)N1C[C@@H]2CCC[C@@H]2[C@H]1C(=O)NN(C[C@@H]1CCNC1=O)C(=O)[C@H](F)Cl [Example 31, N-[(1S)-1-[(3S,3aS,6aR)-3-[[[(2R)-2-chloro-2-fluoro-acetyl]-[[(3S)-2-oxopyrrolidin-3-yl]methyl]amino]carbamoyl]-3,3a,4,5,6,6a-hexahydro-1H-cyclopenta[c]pyrrole-2-carbonyl]-2,2-dimethyl-propyl]cyclopropanecarboxamide] | 7.92 | 7.55 | 7.12 | 8.10
CC1(C)[C@@H]2[C@@H](C(=O)NN(C[C@@H]3CCNC3=O)C(=O)[C@H](F)Cl)N(C(=O)[C@H](Cc3ccccc3)NC(=O)C(F)(F)F)C[C@@H]21 [Example 20, N-[(1S)-1-benzyl-2-[(1R,2S,5S)-2-[[[(2R)-2-chloro-2-fluoro-acetyl]-[[(3S)-2-oxopyrrolidin-3-yl]methyl]amino]carbamoyl]-6,6-dimethyl-3-azabicyclo[3.1.0]hexan-3-yl]-2-oxo-ethyl]-2,2,2-trifluoro-acetamide] | 7.80 | 7.33 | 6.97 | 7.85
CC(C)(C)[C@H](NC(=O)[C@@H]1CC1(F)F)C(=O)N1C[C@@H]2CCC[C@@H]2[C@H]1C(=O)NN(C[C@@H]1CCNC1=O)C(=O)[C@H](F)Cl [Example 99, (1S)—N-[(1S)-1-[(3S,3aS,6aR)-3-[[[(2R)-2-chloro-2-fluoro-acetyl]-[[(3S)-2-oxopyrrolidin-3-yl]methyl]amino]carbamoyl]-3,3a,4,5,6,6a-hexahydro-1H-cyclopenta[c]pyrrole-2-carbonyl]-2,2-dimethyl-propyl]-2,2-difluoro-cyclopropanecarboxamide] | 7.92 | 7.52 | 7.09 | 8.10
CC(C)(C)[C@H](NC(=O)C1(F)CC1)C(=O)N1C[C@H]2[C@@H]([C@H]1C(=O)NN(C[C@@H]1CCNC1=O)C(=O)[C@H](F)Cl)C2(C)C [Example 83, N-[(1S)-1-[(1R,2S,5S)-2-[[[(2R)-2-chloro-2-fluoro-acetyl]-[[(3S)-2-oxopyrrolidin-3-yl]methyl]amino]carbamoyl]-6,6-dimethyl-3-azabicyclo[3.1.0]hexane-3-carbonyl]-2,2-dimethyl-propyl]-1-fluoro-cyclopropanecarboxamide] | 8.00 | 7.51 | 7.01 | 8.05
